Test results: patent US9228097B2, “Phase change inks” (Xerox Corporation, priority 2013, dated 2016)

What was measured:
[1] = Solubility testing in polyethylene wax (POLYWAX 655); type: physicochemical; conditions: 1 g Solvent Black 3 or 2 g distearyl derivative in 50 g POLYWAX 655, 120° C. oil bath, stirred 3 h, then 1 h without stirring
Protocol: [drawing 41] molecular weight 892, were compared for solubility in polyethylene wax, a predominant component in phase change inks. 1 g of the Solvent Black 3 and 2 g of the distearyl derivative (because its molecular weight was about twice that of Solvent Black 3) were each dissolved in 50 g portions of POLYWAX 655 (Baker Petrolite) in 100 mL beakers equipped with magnetic stir bars. The solutions were placed in 120° C. oil baths and allowed to stir for 3 h, followed by cessation of stirring for 1 h, after which the solutions were poured into aluminum tins.

[2] = K-proofer print of the wax compositions on paper (darkness of the images as a sign of dissolved dye); type: physicochemical; conditions: polyethylene wax compositions of the solubility test applied to paper with RK Print-Coat K-proofer

darkness (optical density) of images versus composition containing Solvent Black 3 [2] | Compound | solubility in polyethylene wax (solids on bottom of beaker) [1]
 | CC1(C)Nc2cccc3c(/N=N/c4ccc(/N=N/c5ccccc5)c5ccccc45)ccc(c23)N1 [Solvent Black 3, reference compound] | a substantial amount of the Solvent Black 3 appeared on the bottom of its beaker
considerably darker | CCCCCCCCCCCCCCCCCC1(CCCCCCCCCCCCCCCCC)Nc2cccc3c(/N=N/c4ccc(/N=N/c5ccccc5)c5ccccc45)ccc(c23)N1 [distearyl derivative] | almost no solids appeared on the bottom of the beaker
